Tests used:
SERPINC1 mRNA [1] = test: Quantitative PCR of SERPINC1 mRNA in primary human hepatocytes (Lonza Hu4282) treated with compounds; assay type: cell-based; details: quantitative PCR; for SERPINC1 mRNA, H8290, 1 uM / SERPINC1 mRNA, H8290, 10 uM: hepatocytes H8290; for SERPINC1 mRNA, H8290, 1 uM / SERPINC1 mRNA, Lonza Hu4282, 1 uM: compound 1 uM; for SERPINC1 mRNA, H8290, 10 uM / SERPINC1 mRNA, Lonza Hu4282, 10 uM: compound 10 uM; for SERPINC1 mRNA, Lonza Hu4282, 1 uM / SERPINC1 mRNA, Lonza Hu4282, 10 uM: primary human hepatocytes Lonza Hu4282
SERPINC1 mRNA [2] = test: RNA seq of SERPINC1 in MGH54 cells treated with select compounds; assay type: cell-based, human; details: compound 10 uM
MECP2 mRNA [3] = test: qPCR of MECP2 mRNA in mouse hepatocytes; details: 10 uM, qPCR relative to DMSO control (FIG. 8)
Excerpt: (§1) Samples were amplified using Taqman probes from ThermoFisher.

MECP2 mRNA [4] = test: MECP2 mRNA in primary human hepatocytes (donor 1, donor 2); assay type: cell-based; details: two donors, indicated dosages vs DMSO (FIGS. 10A and 10B)
Procedure: (§2) Human hepatocytes were obtained from two donors from Massachusetts General Hospital, namely MGH54 and MGH63, and one donor from Lonza, namely HUM4111B. Cryopreserved hepatocytes were cultured in plating media for 16 hours, transferred to maintenance media for 4 hours. Cultured on serum-free media for 2 hours, then a compound was added. The hepatocytes were maintained on the serum-free media for 16 hours prior to gene expression analysis. Primary human hepatocytes were stored in the vapor phase of a liquid nitrogen freezer (about −130° C.).
(§3) Human hepatocytes cultured as described above were plated in 24-well format, adding 375,000 cells per well in a volume of 500 ul plating medium. Four hours before treatment, cells were washed with PBS and the medium was changed to either: fresh maintenance medium (complete) or modified maintenance medium.
(§4) Compound stocks were prepared at 1000× final concentration and added in a 2-step dilution to the medium to reduce risk of a compound precipitating out of solution when added to the cells, and to ensure reasonable pipetting volumes. One at a time, each compound was first diluted 10-fold in warm (about 37° C.) modified maintenance medium (initial dilution=ID), mixed by vortexing, and the ID was diluted 100-fold into the cell culture (e.g. 5.1 ul into 1 well of a 24-well plate containing 0.5 mL medium). The plate was mixed by carefully swirling and after all wells were treated and returned to the incubator overnight. If desired, separate plates/wells were treated with vehicle-only controls and/or positive controls. If using multi-well plates, controls were included on each plate. After about 18 hours, cells were harvested for further analysis, e.g., ChIP-seq, RNA-seq, ATAC-seq, etc.
as §1

SERPINC1 = test: RNA-seq of SERPINC1 expression in compound-treated primary human hepatocytes; assay type: cell-based; details: significance FPKM ≥1, log 2(fold change) ≥0.5, q-value ≤0.05
Procedure: Human hepatocytes were obtained from two donors from Massachusetts General Hospital, namely MGH54 and MGH63, and one donor from Lonza, namely HUM4111B. Cryopreserved hepatocytes were cultured in plating media for 16 hours, transferred to maintenance media for 4 hours. Cultured on serum-free media for 2 hours, then a compound was added. The hepatocytes were maintained on the serum-free media for 16 hours prior to gene expression analysis. Primary human hepatocytes were stored in the vapor phase of a liquid nitrogen freezer (about -130° C.). Human hepatocytes cultured as described above were plated in 24-well format, adding 375,000 cells per well in a volume of 500 ul plating medium. Four hours before treatment, cells were washed with PBS and the medium was changed to either: fresh maintenance medium (complete) or modified maintenance medium. Compound stocks were prepared at 1000× final concentration and added in a 2-step dilution to the medium to reduce risk of a compound precipitating out of solution when added to the cells, and to ensure reasonable pipetting volumes. […] The plate was mixed by carefully swirling and after all wells were treated and returned to the incubator overnight. If desired, separate plates/wells were treated with vehicle-only controls and/or positive controls. If using multi-well plates, controls were included on each plate. After about 18 hours, cells were harvested for further analysis, e.g., ChIP-seq, RNA-seq, ATAC-seq, etc. This protocol is a modified version of the following protocols: MagMAX mirVana Total RNA Isolation Kit User Guide (Applied Biosystems #MAN0011131 Rev B.0), NEBNext Poly(A) mRNA Magnetic Isolation Module ([…]), and NEBNext Ultra Directional RNA Library Prep Kit for Illumina ([…]) (New England Biosystems #E74901). […] Two hundred μl of Lysis Binding Mix was used per well of the multiwell plate containing adherent cells (usually a 24-well plate). For mRNA isolation and library prep, the NEBNext Poly(A) mRNA Magnetic Isolation Module and Directional Prep kit was used. RNA isolated from cells above was quantified, and prepared in […] of each sample in 50 μl of nuclease-free water. This protocol may be run in microfuge tubes or in a 96-well plate. […] Genomic alignments were converted to transcriptome alignments based on reference transcript annotations from the Human GENCODE Gene Set release 24 (Harrow et al., Genome Res. […] Using unique and multimapped transcriptomic alignments, gene-level abundance estimates were computed using RSEM version 1.3.0 (Li and Dewey, BMC Bioinformatics (2011) 12:323) in a strand-aware manner, and including confidence interval sampling calculations, to arrive at posterior mean estimates (PME) of abundances (counts and normalized FPKM-fragments per kilobase of exon per million mapped fragments) from the underlying Bayesian model. Standard QC were applied (read integrity, mapping statistics, library complexity, fragment bias) to remove unsatisfactory samples. Differential gene expression was computed using the negative binomial model implemented by DESeq2 version 1.16.1 (Love et al., Genome Biol. (2014) 15(12):550). […] RNA-seq signals were also normalized by read depth and visualized using the UCSC browser. To identify small molecules that modulate target gene expression, primary human hepatocytes were prepared as a monoculture, and at least one small molecule compound was applied to the cells. RNA-seq was performed to determine the effects of the compounds on the expression of the target genes in hepatocytes. Fold change was calculated by dividing the level of expression in the cell system that had been perturbed by the level of expression in an unperturbed system.

UGT1A1 = test: RNA-seq of UGT1A1 expression in compound-treated primary human hepatocytes; assay type: cell-based
Method in brief: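 Cryopreserved primary human hepatocytes from three donors were plated in 24-well format, then treated with compound diluted from 1000× stocks in serum-free maintenance medium for about 16–18 h. Poly(A) RNA-seq log2 fold change was computed against vehicle/pan-experiment controls. Significance required FPKM ≥1, log2FC ≥0.5 and q ≤0.05.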

APOL1 mRNA = APOL1 mRNA in primary human hepatocytes treated with Momelotinib or metabolite M21; assay type: cell-based; details: 3.3 uM vs DMSO (FIG. 11, FIG. 12)
ANGPTL3 = test: RNA-seq of ANGPTL3 expression in compound-treated primary human hepatocytes; assay type: cell-based; details: additional compounds (Table 13), linear fold change
Method in brief: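 Cryopreserved primary human hepatocytes from three donors, plated at 375,000 cells/well, switched to complete or modified maintenance medium, then dosed with compound (stocks at 1000× final) for about 18 h. Poly(A) mRNA was sequenced directionally, mapped to GRCh38 with STAR, and gene-level abundance (counts, FPKM) estimated with RSEM against GENCODE 24.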

SERPINC1 mRNA [5] = test: Quantitative PCR of SERPINC1 mRNA in mouse hepatocytes treated with compounds; assay type: cell-based; details: for SERPINC1 mRNA, Mouse Heps, 1 uM: compound 1 uM; for SERPINC1 mRNA, Mouse Heps, 10 uM: compound 10 uM
Procedure: as §1
In some examples, RQ Min and RQ Max values are also reported. RQ Min and RQ Max are the minimum and maximum relative levels of gene expression in the test samples, respectively. They were calculated using the confidence level set in the analysis settings and the confidence level was set to one standard deviation (SD). These values were calculated using standard deviation as follows: […].
Compounds were tested in hepatocytes for upregulation of SERPINC1 mRNA for identification of potential treatments of SERPINC1/AT III deficiency.

FN1 = test: RNA-seq of FN1 expression in compound-treated primary human hepatocytes; assay type: cell-based; details: perturbed vs unperturbed, significance FPKM ≥1, log 2(fold change) ≥0.5, q-value ≤0.05
Procedure: as §2, §3, §4
This protocol is a modified version of the following protocols: MagMAX mirVana Total RNA Isolation Kit User Guide (Applied Biosystems #MAN0011131 Rev B.0), NEBNext Poly(A) mRNA Magnetic Isolation Module (E7490), and NEBNext Ultra Directional RNA Library Prep Kit for Illumina (E7420) (New England Biosystems #E74901).
The MagMAX mirVana kit instructions (the section titled “Isolate RNA from cells” on pages 14-17) were used for isolation of total RNA from cells in culture. Two hundred μl of Lysis Binding Mix was used per well of the multiwell plate containing adherent cells (usually a 24-well plate).
For mRNA isolation and library prep, the NEBNext Poly(A) mRNA Magnetic Isolation Module and Directional Prep kit was used. RNA isolated from cells above was quantified, and prepared in […] of each sample in 50 μl of nuclease-free water. This protocol may be run in microfuge tubes or in a 96-well plate.
All pass filter reads from each sample were mapped against the human genome (assembly GRCh38/GCA_000001405.15 “no alt” analysis set merged with hs38d1/GCA_000786075.2) using two pass mapping via STAR version 2.5.3a (alignment parameters alignIntronMin=20; alignIntronMax=1000000; outFilterMismatchNmax=999; outFilterMismatchNoverLmax=0.05; outFilterType=BySJout; outFilterMultimapNmax=20; alignSJoverhangMin=8; alignSJDBoverhangMin=1; alignMatesGapMax=1000000) (Dobin et al., Bioinformatics (2012) 29(1):15-21). Genomic alignments were converted to transcriptome alignments based on reference transcript annotations from the Human GENCODE Gene Set release 24 (Harrow et al., Genome Res. (2012) 22(9): 1760-1774). Using unique and multimapped transcriptomic alignments, gene-level abundance estimates were computed using RSEM version 1.3.0 (Li and Dewey, BMC Bioinformatics (2011) 12:323) in a strand-aware manner, and including confidence interval sampling calculations, to arrive at posterior mean estimates (PME) of abundances (counts and normalized FPKM—fragments per kilobase of exon per million mapped fragments) from the underlying Bayesian model. Standard QC were applied (read integrity, mapping statistics, library complexity, fragment bias) to remove unsatisfactory samples.

HMBS = test: RNA-seq of HMBS expression in compound-treated primary human hepatocytes; assay type: cell-based
Procedure: as §2, §3
Compound stocks were prepared at 1000× final concentration and added in a 2-step dilution to the medium to reduce risk of a compound precipitating out of solution when added to the cells, and to ensure reasonable pipetting volumes. […]
For mRNA isolation and library prep, the NEBNext Poly(A) mRNA Magnetic Isolation Module and Directional Prep kit was used. RNA isolated from cells above was quantified, and prepared in […] of each sample in 50 μl of nuclease-free water. […]

| Compound | SERPINC1 mRNA, H8290, 1 uM (SERPINC1 mRNA [1]) | SERPINC1 mRNA, H8290, 10 uM (SERPINC1 mRNA [1]) | SERPINC1, MGH54 (RNA seq), 10 uM (SERPINC1 mRNA [2]) | SERPINC1 mRNA, Lonza Hu4282, 1 uM (SERPINC1 mRNA [1]) | SERPINC1 mRNA, Lonza Hu4282, 10 uM (SERPINC1 mRNA [1]) | SERPINC1 mRNA, Mouse Heps, 1 uM (SERPINC1 mRNA [5]) | SERPINC1 mRNA, Mouse Heps, 10 uM (SERPINC1 mRNA [5]) | other results |
| --- | --- | --- | --- | --- | --- | --- | --- | --- |
| CO[C@H]1C[C@@H]2CC[C@@H](C)[C@@](O)(O2)C(=O)C(=O)N2CCCC[C@H]2C(=O)O[C@H]([C@H](C)C[C@@H]2CC[C@@H](OC(=O)C(C)(CO)CO)[C@H](OC)C2)CC(=O)[C@H](C)/C=C(\C)[C@@H](O)[C@@H](OC)C(=O)[C@H](C)C[C@H](C)/C=C/C=C/C=C/1C [Temsirolimus] | 1.2 | 1.6 | 0 | – | – | – | – | – |
| C=CCNC1=C2C[C@@H](C)C[C@H](OC)[C@H](O)[C@@H](C)/C=C(\C)[C@H](OC(N)=O)[C@@H](OC)/C=C\C=C(/C)C(=O)NC(=CC1=O)C2=O [17-AAG (Tanespimycin), Tanespimycin] | – | – | – | – | – | – | – | MECP2 mRNA change in mouse hepatocytes (MECP2 mRNA [3]): increased; MECP2 mRNA change in primary human hepatocytes (MECP2 mRNA [4]): dose-dependent increase |
| N#CCNC(=O)c1ccc(-c2ccnc(Nc3ccc(N4CCOCC4)cc3)n2)cc1 [Momelotinib] | – | – | – | – | – | – | – | SERPINC1 Fold Change (Log2) (SERPINC1): 0.93 Log2; UGT1A1 Fold Change (Log2) (UGT1A1): 1.05 Log2; APOL mRNA change in primary human hepatocytes (APOL1 mRNA): Downregulation |
| COc1ccc(-c2ccc3c(N4CCOC[C@@H]4C)nc(N4CCOC[C@@H]4C)nc3n2)cc1CO [AZD8055] | – | – | 0 | 1.3 | 1.61 | 3.2 | 3.4 | ANGPTL3-LINEAR FOLD CHANGE (ANGPTL3): 0.4965 |
| O=C1CCc2c(Oc3ccc4c(c3)[C@@H]3[C@H](O4)[C@H]3c3nc4cc(C(F)(F)F)ccc4[nH]3)ccnc2N1 [Lifirafenib (BGB-283)/BeiGene] | 1.1 | 2.1 | 1.43 | 1.05 | 1.21 | 0.81 | 1.1 | – |
| COc1cc2c(Oc3ccc(NC(=O)C4(C(=O)Nc5ccc(F)cc5)CC4)cc3F)ccnc2cc1OCCCN1CCOCC1 [Foretinib] | 1 | 2.2 | 0 | 1.04 | 1.36 | 1.05 | 0.93 | – |
| CCn1c(=O)c(-c2cc[nH]n2)cc2c(C)nc(N)nc21 [Voxtalisib] | 1.2 | 1.5 | 0 | 1.1 | 1.24 | 1.23 | 2.4 | – |
| CC(=O)NCC(=O)N1[C@@H]2CC[C@H]1c1ccc(Nc3ncc(C(F)(F)F)c(NC4CCC4)n3)cc12 [PF-3814735] | – | – | 2.43 | 0.99 | 2.6 | 1.2 | 1.86 | ANGPTL3-LINEAR FOLD CHANGE (ANGPTL3): 0.4383 |
| CN1CCN(c2nc(C3=C(c4c[nH]c5ccccc45)C(=O)NC3=O)c3ccccc3n2)CC1 [Sotrastaurin] | – | – | – | – | – | – | – | FN1 Fold Change (Log2) (FN1): −0.81 Log2; HMBS Fold Change (Log2) (HMBS): 0.78 Log2; UGT1A1 Fold Change (Log2) (UGT1A1): 0.88 Log2 |
